Test results from patent US11696913B2, “Prolonged ectoparasite-controlling agent for animal” (MITSUI CHEMICALS AGRO, INC., priority 2017, dated 2023).

Tests used:
Ctenocephalides felis [1] = experiment: In vitro contact test with fleas; settings: read-out: insecticidal activity; for pest or weed control at 0.2 µg/cm2, 0.2 µg/cm2: dose 0.2 μg/cm^2, dead or moribund fleas after 48 h; for pest or weed control at 1 µg/cm2, 1 µg/cm2: dose 1 μg/cm^2, dead or moribund fleas after 48 h
Outline: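 Activity is the percentage of fleas dead or moribund at 48 h, judged by immobility or uncoordinated movement after tapping. Tubes were coated by evaporating acetone solutions (900 ppm gives 5 μg/cm^2), then held 5-10 adult fleas of both sexes at room temperature and ambient humidity.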

Amblyomma americanum = experiment: In vitro contact test with hard ticks (Amblyomma americanum nymphs); settings: read-out: acaricidal activity; for pest or weed control at 0.2 µg/cm2, 0.2 µg/cm2: dose 0.2 μg/cm^2, 48 h; for pest or weed control at 1 µg/cm2, 1 µg/cm2: dose 1 μg/cm^2, 48 h
Outline: (§1)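 Acaricidal activity = % ticks dead or moribund after 48 h contact with acetone-deposited compound on vial walls (e.g., 900 ppm solution → 5 μg/cm^2). Ambient conditions for R. sanguineus, 21° C./85% rel. hum. for other species; heat challenge at 45-50° C. separated climbers from moribund ticks.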

Dermacentor variabilis = experiment: In vitro contact test with adult hard ticks (Dermacentor variabilis); settings: read-out: acaricidal activity; for pest or weed control at 0.2 µg/cm2, 0.2 µg/cm2: dose 0.2 μg/cm^2, 48 h; for pest or weed control at 1 µg/cm2, 1 µg/cm2: dose 1 μg/cm^2, 48 h
Outline: as §1

Ixodes ricinus = experiment: In vitro contact test with adult hard ticks (Ixodes ricinus); settings: read-out: acaricidal activity; for pest or weed control at 0.2 µg/cm2, 0.2 µg/cm2: dose 0.2 μg/cm^2, 48 h; for pest or weed control at 1 µg/cm2, 1 µg/cm2: dose 1 μg/cm^2, 48 h; for pest or weed control at 5 µg/cm2, 5 µg/cm2: dose 5 μg/cm^2, 48 h
Outline: as §1

Rhipicephalus sanguineus = experiment: In vitro contact test with adult hard ticks (Rhipicephalus sanguineus); settings: read-out: acaricidal activity; for pest or weed control at 0.04 µg/cm2, 0.04 µg/cm2: dose 0.04 μg/cm^2, 48 h; for pest or weed control at 0.2 µg/cm2, 0.2 µg/cm2: dose 0.2 μg/cm^2, 48 h; for pest or weed control at 1 µg/cm2, 1 µg/cm2: dose 1 μg/cm^2, 48 h
Outline: as §1

[2] = test system: Rhipicephalus (Boophilus) microplus; experiment: In vitro injection test with Rhipicephalus (Boophilus) microplus (BOOPMI Inj); settings: 168 h, laid fertile eggs after 7 days, read-out: acaricidal activity; for pest or weed control at 32 ng: dose 0.032 μg/animal injected; for pest or weed control at 0.00016 mg: dose 0.16 μg/animal injected; for pest or weed control at 0.0008 mg: dose 0.8 μg/animal injected
Outline: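 Five engorged adult females each get a 1 μl abdominal injection of compound dissolved and diluted in DMSO. Kept 7 days at 28° C./85% rel. hum.; percent activity rates egg laying and egg fertility (0% all fertile, 100% none laid or infertile).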

Ctenocephalides felis [3] = experiment: Ctenocephalides felis in-vitro feeding test with fleas (CTECFE oral); settings: 48 hours, read-out: insecticidal feeding activity; for pest or weed control at 0.032 ppm: dose 0.032 ppm in citrated cattle blood; for pest or weed control at 0.16 ppm: dose 0.16 ppm in citrated cattle blood; for pest or weed control at 0.8 ppm: dose 0.8 ppm in citrated cattle blood; for pest or weed control at 4 ppm: dose 4 ppm in citrated cattle blood
Outline: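 Scored as percent fleas killed (0–100%) 48 hours after feeding began. Compound, dissolved in DMSO and diluted into citrated cattle blood, was offered via a parafilm membrane to roughly 20 adult male and female C. felis at about 37° C.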

Spodoptera litura = experiment: Insecticidal testing against common cutworm; type: in vivo; settings: foliar, 144 h, concentration 100 ppm, cabbage leaf dip, second-stage larvae, after 6 days, read-out: pesticidal rate
Text: Insecticidal Testing Against Common Cutworm (Spodoptera litura)

Plutella xylostella = experiment: Insecticidal testing against diamondback moth; type: in vivo; settings: foliar, 144 h, concentration 100 ppm, cabbage leaf dip, third-stage larvae, after 6 days, read-out: pesticidal rate
Text: Insecticidal Testing Against Diamondback Moth (Plutella xylostella)

Laodelphax striatellus = experiment: Insecticidal testing against small brown planthopper; type: in vivo; settings: 144 h, concentration 100 ppm, sprayed rice seedlings, after 6 days, read-out: pesticidal rate
Outline: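 Acetone solution of compound at a set concentration sprayed onto rice seedlings, air-dried, then exposed to 10 planthoppers (one group). Held at 25° C; survival rate recorded after 6 days.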

O=C(Nc1cccc(C(=O)Nc2c(I)cc(C(F)(C(F)(F)F)C(F)(F)F)cc2OC(F)F)c1F)c1ccc(C(F)(F)F)nc1 [Compound 108] gave a pest or weed control at 0.2 µg/cm2, 0.2 µg/cm2 (Ctenocephalides felis [1]) of 95%, a pest or weed control at 1 µg/cm2, 1 µg/cm2 (Ctenocephalides felis [1]) of 95% and a pest or weed control at 0.2 µg/cm2, 0.2 µg/cm2 (Amblyomma americanum) of 90%. The pest or weed control at 1 µg/cm2, 1 µg/cm2 (Amblyomma americanum) was 90%, the pest or weed control at 0.2 µg/cm2, 0.2 µg/cm2 (Dermacentor variabilis) was 90% and the pest or weed control at 1 µg/cm2, 1 µg/cm2 (Dermacentor variabilis) was 90%. For the same compound, the pest or weed control at 0.2 µg/cm2, 0.2 µg/cm2 (Ixodes ricinus) was 90%, the pest or weed control at 1 µg/cm2, 1 µg/cm2 (Ixodes ricinus) was 90% and the pest or weed control at 5 µg/cm2, 5 µg/cm2 (Ixodes ricinus) was 90%. The pest or weed control at 0.04 µg/cm2, 0.04 µg/cm2 (Rhipicephalus sanguineus) was 90%, the pest or weed control at 0.2 µg/cm2, 0.2 µg/cm2 (Rhipicephalus sanguineus) was 90% and the pest or weed control at 1 µg/cm2, 1 µg/cm2 (Rhipicephalus sanguineus) was 90%. For the same compound, the pest or weed control at 32 ng [2] was 100%, the pest or weed control at 0.00016 mg [2] was 100% and the pest or weed control at 0.0008 mg [2] was 100%. For the same compound, the pest or weed control at 0.0064 ppm (Ctenocephalides felis [3]; dose 0.0064 ppm in citrated cattle blood) was 95%, the pest or weed control at 0.032 ppm (Ctenocephalides felis [3]) was 95% and the pest or weed control at 0.16 ppm (Ctenocephalides felis [3]) was 95%. For the same compound, the pest or weed control at 0.8 ppm (Ctenocephalides felis [3]) was 95%, the pest or weed control at 4 ppm (Ctenocephalides felis [3]) was 95% and the pest or weed control at 100 ppm (Spodoptera litura) was ≥ 70%. For the same compound, the pest or weed control at 100 ppm (Plutella xylostella) was ≥ 70% and the pest or weed control at 100 ppm (Laodelphax striatellus) was ≥ 70%.
Work on CN(C(=O)c1ccc(F)c(F)c1)c1cccc(C(=O)Nc2c(I)cc(C(F)(C(F)(F)F)C(F)(F)F)cc2OC(F)F)c1F [Compound 109] yielded a pest or weed control at 0.04 µg/cm2, 0.04 µg/cm2 (Ctenocephalides felis [1]; dose 0.04 μg/cm^2, dead or moribund fleas after 48 h) of 95%, a pest or weed control at 0.2 µg/cm2, 0.2 µg/cm2 (Ctenocephalides felis [1]) of 95% and a pest or weed control at 1 µg/cm2, 1 µg/cm2 (Ctenocephalides felis [1]) of 95%. For the same compound, the pest or weed control at 1 µg/cm2, 1 µg/cm2 (Amblyomma americanum) was 90%, the pest or weed control at 0.2 µg/cm2, 0.2 µg/cm2 (Dermacentor variabilis) was 90% and the pest or weed control at 1 µg/cm2, 1 µg/cm2 (Dermacentor variabilis) was 90%. For the same compound, the pest or weed control at 0.2 µg/cm2, 0.2 µg/cm2 (Ixodes ricinus) was 90%, the pest or weed control at 1 µg/cm2, 1 µg/cm2 (Ixodes ricinus) was 90% and the pest or weed control at 5 µg/cm2, 5 µg/cm2 (Ixodes ricinus) was 90%. For the same compound, the pest or weed control at 0.04 µg/cm2, 0.04 µg/cm2 (Rhipicephalus sanguineus) was 90%, the pest or weed control at 6.4 ng ([2]; dose 0.0064 μg/animal injected) was 100% and the pest or weed control at 32 ng [2] was 100%. The pest or weed control at 0.00016 mg [2] was 100%, the pest or weed control at 0.0008 mg [2] was 100% and the pest or weed control at 0.032 ppm (Ctenocephalides felis [3]) was 95%. The pest or weed control at 0.16 ppm (Ctenocephalides felis [3]) was 95%, the pest or weed control at 0.8 ppm (Ctenocephalides felis [3]) was 95% and the pest or weed control at 4 ppm (Ctenocephalides felis [3]) was 95%. The pest or weed control at 100 ppm (Spodoptera litura) was ≥ 70%, the pest or weed control at 100 ppm (Plutella xylostella) was ≥ 70% and the pest or weed control at 100 ppm (Laodelphax striatellus) was ≥ 70%.
Compound O=C(Nc1cccc(C(=O)Nc2c(I)cc(C(F)(C(F)(F)F)C(F)(F)F)cc2OC(F)F)c1F)c1ccc(F)c(F)c1 [Compound 110] has a pest or weed control at 0.2 µg/cm2, 0.2 µg/cm2 (Ctenocephalides felis [1]) of 95%, a pest or weed control at 1 µg/cm2, 1 µg/cm2 (Ctenocephalides felis [1]) of 95% and a pest or weed control at 0.04 µg/cm2, 0.04 µg/cm2 (Amblyomma americanum; dose 0.04 μg/cm^2, 48 h) of 90%. For the same compound, the pest or weed control at 0.2 µg/cm2, 0.2 µg/cm2 (Amblyomma americanum) was 90%, the pest or weed control at 1 µg/cm2, 1 µg/cm2 (Amblyomma americanum) was 90% and the pest or weed control at 0.2 µg/cm2, 0.2 µg/cm2 (Dermacentor variabilis) was 90%. The pest or weed control at 1 µg/cm2, 1 µg/cm2 (Dermacentor variabilis) was 90%, the pest or weed control at 0.2 µg/cm2, 0.2 µg/cm2 (Ixodes ricinus) was 90% and the pest or weed control at 1 µg/cm2, 1 µg/cm2 (Ixodes ricinus) was 90%. It also gave a pest or weed control at 5 µg/cm2, 5 µg/cm2 (Ixodes ricinus) of 90%, a pest or weed control at 0.2 µg/cm2, 0.2 µg/cm2 (Rhipicephalus sanguineus) of 90% and a pest or weed control at 1 µg/cm2, 1 µg/cm2 (Rhipicephalus sanguineus) of 90%. It also gave a pest or weed control at 32 ng [2] of 100%, a pest or weed control at 0.00016 mg [2] of 100% and a pest or weed control at 0.0008 mg [2] of 100%. For the same compound, the pest or weed control at 0.032 ppm (Ctenocephalides felis [3]) was 95%, the pest or weed control at 0.16 ppm (Ctenocephalides felis [3]) was 95% and the pest or weed control at 0.8 ppm (Ctenocephalides felis [3]) was 95%. The pest or weed control at 4 ppm (Ctenocephalides felis [3]) was 95%, the pest or weed control at 100 ppm (Spodoptera litura) was ≥ 70% and the pest or weed control at 100 ppm (Plutella xylostella) was ≥ 70%. For the same compound, the pest or weed control at 100 ppm (Laodelphax striatellus) was ≥ 70%.
